Test results from PubChem BioAssay AID1963976 (Molecular Pharmacology Branch, DTP, NCI, 2024).

System: 435261-313-R-J1-PDC tumor spheroid viability
Assay: Anticancer human tumor 435261-313-R-J1-PDC patient-derived colon adenocarcinoma cell line growth inhibition [PI3K]
Details: spheroids with HUVEC and MSC; for IC50: curve of first compound; for viability, T/C: stronger effect = lower value
Method in brief: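 Tumor cells were combined with HUVEC and MSCs into spheroids, then dosed with PI3K-inhibitor combinations over half-log ranges capped near clinical Cmax or 10 microM.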
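Also: spheroids exposed to compounds for 7 days.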

IC50 (second compound 0.00316 µM): 5.55 µM
IC50 (second compound 0.01 µM): 6.17 µM
IC50 (second compound 0.0316 µM): 4.21 µM
IC50 (second compound 0.1 µM): < 0.0316 µM
IC50 (second compound 0.316 µM): < 0.0316 µM
IC50 (second compound 1 µM): < 0.0316 µM
Compound: CC1(C)CCC(CN2CCN(c3ccc(C(=O)NS(=O)(=O)c4ccc(NCC5CCOCC5)c([N+](=O)[O-])c4)c(Oc4cnc5[nH]ccc5c4)c3)CC2)=C(c2ccc(Cl)cc2)C1 + CC(Nc1ccc2c(c1)OCCn1cc(N3C(=O)OCC3C(F)F)nc1-2)C(N)=O
viability, T/C (second compound 0.00316 µM, first compound 0.0316 µM): 69.6%
viability, T/C (second compound 0.00316 µM, first compound 0.1 µM): 90.5%
viability, T/C (second compound 0.00316 µM, first compound 0.316 µM): 79.2%
viability, T/C (second compound 0.00316 µM, first compound 1 µM): 127%
viability, T/C (second compound 0.00316 µM, first compound 3.16 µM): 81.3%
viability, T/C (second compound 0.00316 µM, first compound 10 µM): 17.4%
viability, T/C (second compound 0.01 µM, first compound 0.0316 µM): 81.3%
viability, T/C (second compound 0.01 µM, first compound 0.1 µM): 77.5%
viability, T/C (second compound 0.01 µM, first compound 0.316 µM): 79%
viability, T/C (second compound 0.01 µM, first compound 1 µM): 90.8%
viability, T/C (second compound 0.01 µM, first compound 3.16 µM): 95.9%
viability, T/C (second compound 0.01 µM, first compound 10 µM): 24.8%
viability, T/C (second compound 0.0316 µM, first compound 0.0316 µM): 58.7%
viability, T/C (second compound 0.0316 µM, first compound 0.1 µM): 59.2%
viability, T/C (second compound 0.0316 µM, first compound 0.316 µM): 55.1%
viability, T/C (second compound 0.0316 µM, first compound 1 µM): 65.8%
viability, T/C (second compound 0.0316 µM, first compound 3.16 µM): 74.4%
viability, T/C (second compound 0.0316 µM, first compound 10 µM): 11.7%
viability, T/C (second compound 0.1 µM, first compound 0.0316 µM): 34.1%
viability, T/C (second compound 0.1 µM, first compound 0.1 µM): 39.8%
viability, T/C (second compound 0.1 µM, first compound 0.316 µM): 51.5%
viability, T/C (second compound 0.1 µM, first compound 1 µM): 35.1%
viability, T/C (second compound 0.1 µM, first compound 3.16 µM): 33.6%
viability, T/C (second compound 0.1 µM, first compound 10 µM): 10.8%
viability, T/C (second compound 0.316 µM, first compound 0.0316 µM): 23.1%
viability, T/C (second compound 0.316 µM, first compound 0.1 µM): 23.3%
viability, T/C (second compound 0.316 µM, first compound 0.316 µM): 22.3%
viability, T/C (second compound 0.316 µM, first compound 1 µM): 24%
viability, T/C (second compound 0.316 µM, first compound 3.16 µM): 26.2%
viability, T/C (second compound 0.316 µM, first compound 10 µM): 8.22%
viability, T/C (second compound 1 µM, first compound 0.0316 µM): 16.4%
viability, T/C (second compound 1 µM, first compound 0.1 µM): 20%
viability, T/C (second compound 1 µM, first compound 0.316 µM): 14.9%
viability, T/C (second compound 1 µM, first compound 1 µM): 18.3%
viability, T/C (second compound 1 µM, first compound 3.16 µM): 18.8%
viability, T/C (second compound 1 µM, first compound 10 µM): 7.07%
